Source: patent US20030104507A1, “Method for detection of ATP” (priority 2001, published 2003)

How the values were obtained:
[1] = system: LucPpe2m146; test: Duration of luminescence (signal stability) and effects of media and sera, DTAB, ± pyrophosphate; assay type: biochemical, Photuris pennsylvanica; conditions: 10 μM sodium pyrophosphate
Method: In some embodiments, the compositions of the invention were added to intact cells to lyse them, and then ATP detected. In other embodiments, conditioned culture media were themselves assayed for ATP. However, the various components of media, such as buffers, sugars, amino acids, pH indicators, salts, etc., as well as the various factors found in serum (equine, bovine, etc.) may inhibit luciferase activity.
The luciferase-luciferin reaction was initiated by combining 100 μl of the reagent composition composition with 100 μl cell media with serum, varying final concentrations of DTAB (as indicated below in Table Q) and 1.0 μM ATP was added to each reaction plus or minus 10 μM sodium pyrophosphate in wells of a 96-well microtiter luminometer plate; each experimental condition was prepared in triplicate. At various times after initiating the reaction, rlu values were recorded using an Orion microplate luminometer (Berthold Detection Systems; Pforzheim, Germany).

[2] = system: ATPase activity endogenous to L929 cell lysate; test: Detergent inhibition of ATPase endogenous to L929 cell lysate (ATP remaining by luciferase luminescence, 22° C.); assay type: biochemical; design: key to Relative ATPase Activity, slope det/slope lysate: slope with detergent / slope without; ≥1.0 = 100% activity, 0.5 = 50%
Method: Three separate detergents in each of four detergent classes were tested: anionic [SDS (Sodium dodecyl sulfate), Bioterge (an α olefin sulfate), and sodium deoxycholate], nonionic [TRITON X-100, BigCHAP (N,N-bis(3-D-Gluconamidopropyl)cholamide) and THESIT (polyethylene glycol 400 dodecyl ether, Fluka, #88315)], cationic [BDDABr (Benzyldimethyldodecylammonium bromide), CTAB (Cetyltrimethylammonium bromide), and DTAB (dodecyltrimethylammonium bromide)] and zwitterionic [CHAPS (3[(3-Cholamidopropyl)dimethylammonio]propanesulfonic acid), CHAPSO (3-([3-Cholamidopropyl]dimethylammonio)-2-hydroxy-1-propanesulfonate), and Sulfobetaine 3-10 ([…]-N,N-dimethyl-3-ammonio-1-propanesulfonate)]. Detergents were obtained from Sigma, Fluka and Aldrich.
L929 cells (ATCC CCL-1; 1.5×10^5 cells/ml) in F12/DMEM (Hyclone, SH30023) containing 10% horse serum (Hyclone, SH30074) were frozen and thawed for four cycles to create a cell lysate. Then 50 μl of stock detergent solutions [10%, 5.0%, 1.0%, and 0.5% (w/v)] were separately added to 450 μl cell lysate, creating a final detergent concentration in the cell lysate sample of 1.0%, 0.5%, 0.1%, and 0.05%, respectively (these percentage values are those used in Tables D and E herein below). Control samples contained either lysate only or 1.0 μM ATP in 15 mM HEPES buffer (pH 7.5). All samples were incubated at 22° C. (room temperature) for the duration of the experiment.
At various timepoints, 20 μl from each sample/detergent mixture was added to a 96-well luminometer plate in triplicate, and then 100 μl of a solution (“luciferase-luciferin” or “L/L reagent”) containing 25 mM HEPES buffer (pH 7.5), 40 μg luciferase enzyme LucPpe2m146 (Promega, E140), 100 μM luciferin (Promega), and 10 mM MgSO4 was added to each well. The L/L reagent was stored at 4° C. for the duration of the experiment and then allowed to reach ambient temperature just before assaying. After mixing the contents of the plate, light output was measured with a Dynex MLX microtiter plate luminometer (Chantilly, Va.), 0.5 second reads per well with the first measurement taken five minutes after the detergent solution was combined with the sample. The average relative light units and the timepoint at which it was measured (rlu; Table D) and percent of remaining luciferase activity at the timepoint (Table E) are reported; controls were run with each set of experimental conditions as indicated. The cationic and anionic detergents were assayed on one day with one set of controls. The zwitterionic and nonionic detergents were assayed on a separate day with a separate set of controls. The DTAB at 0.5% was assayed on both days (1 and 2).
The experiment was performed as detailed in Example 1. The average relative light unit values and the percent of ATP remaining values are listed below in Table F and G respectively.
The log of the percent of ATP remaining after original timepoint values from Table E and Table G were plotted on the y axis against time (in minutes) on the x axis. The slope of the line generated by these values in the presence of detergent was divided by the slope of the line generated by the values in the absence of detergent (lysate control) resulting in the Relative ATPase Activity values listed below in Table H.
A relative activity value of 1.0 or greater indicates 100% cellular ATPase activity at the concentration of detergent tested. A relative activity value of 0.5 indicates a two-fold (or 50%) decrease in the level of cellular ATPase activity at the concentration of detergent tested when compared to the ATPase activity level in the absence of the detergent. A relative activity value of 0.2 indicates a five-fold (or 80%) decrease in the level of cellular ATPase activity at the concentration of detergent tested when compared to the ATPase activity level in the absence of the detergent.

## O=P([O-])([O-])OP(=O)([O-])[O-].[Na+].[Na+].[Na+].[Na+] [Ppi, sodium pyrophosphate]
[1]
  decrease of luminescence: ten-fold

## polyethylene glycol 400 dodecyl ether [THESIT]
[2]; 0.05% detergent, 5 min
  Average Relative Light Unit Values: 5632.96 rlu
  Percent ATP Remaining: 100%
[2]; 0.05% detergent, 75 min
  Average Relative Light Unit Values: 1601.09 rlu
  Percent ATP Remaining: 28.4%
[2]; 0.05% detergent, 169 min
  Average Relative Light Unit Values: 623.38 rlu
  Percent ATP Remaining: 11.1%
[2]; 0.05% detergent, 222 min
  Average Relative Light Unit Values: 211.67 rlu
  Percent ATP Remaining: 3.8%
[2]; 0.05% detergent, 260 min
  Average Relative Light Unit Values: 110.15 rlu
  Percent ATP Remaining: 2.0%
[2]; 0.05 percent detergent
  Relative ATPase Activity, slope det/slope lysate: 1.295
  Slope (log percent ATP remaining vs time in minutes): −0.0068
[2]; 0.1% detergent, 5 min
  Average Relative Light Unit Values: 6022.32 rlu
  Percent ATP Remaining: 100%
[2]; 0.1% detergent, 75 min
  Average Relative Light Unit Values: 2654.97 rlu
  Percent ATP Remaining: 44.1%
[2]; 0.1% detergent, 169 min
  Average Relative Light Unit Values: 1509.07 rlu
  Percent ATP Remaining: 25.1%
[2]; 0.1% detergent, 222 min
  Average Relative Light Unit Values: 755.94 rlu
  Percent ATP Remaining: 12.6%
[2]; 0.1% detergent, 260 min
  Average Relative Light Unit Values: 447.44 rlu
  Percent ATP Remaining: 7.4%
[2]; 0.10 percent detergent
  Relative ATPase Activity, slope det/slope lysate: 0.850
  Slope (log percent ATP remaining vs time in minutes): −0.0045
[2]; 0.5% detergent, 5 min
  Average Relative Light Unit Values: 6392.75 rlu
  Percent ATP Remaining: 100%
[2]; 0.5% detergent, 75 min
  Average Relative Light Unit Values: 2304.48 rlu
  Percent ATP Remaining: 36.0%
[2]; 0.5% detergent, 169 min
  Average Relative Light Unit Values: 1122.24 rlu
  Percent ATP Remaining: 17.6%
[2]; 0.5% detergent, 222 min
  Average Relative Light Unit Values: 487.28 rlu
  Percent ATP Remaining: 7.6%
[2]; 0.5% detergent, 260 min
  Average Relative Light Unit Values: 240.72 rlu
  Percent ATP Remaining: 3.8%
[2]; 0.50 percent detergent
  Relative ATPase Activity, slope det/slope lysate: 1.065
  Slope (log percent ATP remaining vs time in minutes): −0.0056
[2]; 1.0% detergent, 5 min
  Average Relative Light Unit Values: 6204.02 rlu
  Percent ATP Remaining: 100%
[2]; 1.0% detergent, 75 min
  Average Relative Light Unit Values: 1979.43 rlu
  Percent ATP Remaining: 31.9%
[2]; 1.0% detergent, 169 min
  Average Relative Light Unit Values: 968.14 rlu
  Percent ATP Remaining: 15.6%
[2]; 1.0% detergent, 222 min
  Average Relative Light Unit Values: 416.45 rlu
  Percent ATP Remaining: 6.7%
[2]; 1.0% detergent, 260 min
  Average Relative Light Unit Values: 210.78 rlu
  Percent ATP Remaining: 3.4%
[2]; 1.00 percent detergent
  Relative ATPase Activity, slope det/slope lysate: 1.096
  Slope (log percent ATP remaining vs time in minutes): −0.0058
